# Laboratory results published in article PMC8068801, “Novel Benzenesulfonate Scaffolds with a High Anticancer Activity and G2/M Cell Cycle Arrest” (Cancers, 2021).
# Experiments:
# [1] = system: K562 cells; assay: MTS cytotoxicity assay, K562; type: cell-based, human; settings: for IC50: Homo sapiens, K562, 72 h incubation, MTS; for Selectivity index, K562: normal fibroblasts NHDF vs K562
# Source text: (§1) M. Rusin from the Maria Sklodowska-Curie Memorial Cancer Centre and Institute of Oncology in Gliwice, Poland. […] G. Kramer-Marek from the Institute of Cancer Research in London, United Kingdom. The human suspension chronic myelogenous leukemia cell line K562 and pancreas ductal adenocarcinoma cell line PANC-1 were purchased from Sigma-Aldrich (St. Louis, MO, USA), while the normal human dermal fibroblasts cell line NHDF were purchased from PromoCell. […] Each medium contained a combination of two antibiotics: penicillin and streptomycin (1% v/v; Gibco). All of these cell lines were grown under standard conditions at 37 °C with a 5% CO2 humidified atmosphere. Moreover, all of the cell lines were routinely tested for mycoplasma using the PCR technique with specific Mycoplasma primers to confirm that there was no contamination.
# (§2) The assay was performed following a 72 h incubation with the various concentrations of the tested compounds. Then, 100 µL DMEM without phenol red with 20 µL of the CellTiter 96®AQueous One Solution-MTS (Promega, Promega, WI, USA) was added to each well and incubated for 1 h or 3 h (PANC-1) at 37 °C. The optical densities of the samples were measured at 490 nm using a multi-plate reader (Synergy 4, BioTek, Winooski, VT, USA). […] Each individual compound was tested in triplicate in a single experiment with each experiment being performed three or four times.
# [2] = system: K562 cells; assay: qRT-PCR mRNA expression, K562; type: cell-based, human; settings: 24 h
# Protocol: The total RNA was isolated from the K562 and U-251 cells using the TRIzol Reagent procedure (Ambion, Austin, TX, USA). Reverse transcription was performed with 5 μg of total RNA using a GoScript™ Reverse Transcriptase kit (Promega) and Oligo(dT)23 Primers (Sigma). Real-time PCR was performed using a CTX96 Touch™ Real-Time PCR Detection System (Biorad, Hercules, CA, USA) in a 20 μL reaction volume. The reaction consisted of SsoAdvanced™ Universal SYBR® Green Supermix (Biorad), a specific primer pair mix (0.5 μM each) and 1 μL of cDNA. The reaction was performed under the following conditions: initial denaturation at 95 °C for 30 s; followed by 40 denaturation cycles at 95 °C, 15 s; annealing (primer-specific temperature for 30 s) and extension at 72 °C for 60 s. The obtained results were analyzed based on a comparison of the expression of the target genes to the reference gene, GAPDH, using the 2^−ΔΔCT method. The experiments were performed at least four times.
# [3] = system: K562 cells; assay: Cell cycle assay (Muse Cell-Cycle Kit), K562; type: cell-based, human; settings: 24 h
# Protocol: (§3) The K562, U-251 and NHDF cells were seeded in 3 cm Petri dishes (Nunc) at a density of 250,000 cells per well and incubated under standard conditions at 37 °C for 24 h. […] After a 24 h treatment, the assays were performed using a Muse Cell-Cycle Kit (Millipore, Burlington, MA, USA) according to the supplier’s instructions. Briefly, the cells were collected, washed with cold PBS and centrifuged at 300 g for 5 min. Afterwards, the cells were fixed in ice cold 70% ethanol and stored at −20 °C overnight. The next day, the cells were washed with cold PBS, centrifuged and resuspended in 200 μL of the Muse™ Cell Cycle Reagent. The samples were incubated for 30 min at room temperature in the dark. After staining, the cellular subpopulation values in the individual cell cycle phases were estimated using a cell cycle analysis using a Muse Cell Analyzer (Millipore). The experiments were performed at least four times.
# [4] = system: HCT 116 p53^−/− cells; assay: MTS cytotoxicity assay, HCT 116 p53-/-; type: cell-based, human; settings: for IC50: Homo sapiens, HCT 116 p53^−/−, 72 h incubation, MTS; for Selectivity index, HCT 116 p53 −/−: NHDF vs HCT 116 p53 −/−
# Source text: as §1, §2
# [5] = system: PANC-1 cells; assay: MTS cytotoxicity assay, PANC-1; type: cell-based, human; settings: for IC50: Homo sapiens, PANC-1, 72 h incubation, MTS; for Selectivity index, PANC-1: NHDF vs PANC-1
# Source text: as §1, §2
# [6] = system: U-251 cells; assay: Cell cycle assay (Muse Cell-Cycle Kit), U-251; type: cell-based, human; settings: 24 h
# Protocol: as §3
# [7] = system: NHDF cells; assay: MTS cytotoxicity assay, normal fibroblasts NHDF; type: cell-based; settings: NHDF normal human fibroblasts, 72 h incubation
# Source text: as §1, §2
SMILES,IC50 [1] [nM],"Selectivity index, K562 [1]","Cells in G2/M phase, mean ± SD ([3]; K562, 0.5 μM) [%]",IC50 [4] [nM],"Selectivity index, HCT 116 p53 −/− [4]",IC50 [5] [nM],"Selectivity index, PANC-1 [5]",IC50 [7] [nM],other results
"COc1ccccc1/C=C/c1nc(OS(=O)(=O)c2ccc3c(c2)OCO3)c2ccccc2n1 [BS1, 2-((E)-2-(2-methoxyphenyl)ethenyl)quinazolin-4-yl 1,3-benzodioxole-5-sulfonate]",172 ± 34,72.91,37.20,563 ± 121,22.27,3980 ± 597,3.15,12500 ± 855,"Decrease in the IDH1 mRNA level ([2]; K562, 0.5 μM): ~2.4 fold; p62 mRNA level ([2]; K562, 0.5 μM): about three-fold; Cells in G2/M phase, mean ± SD ([3]; K562, 0.35 µM): 43.46%; Cells in G2/M phase, mean ± SD ([6]; U-251, 4 µM): 85.40%; Cells in G0/G1 phase, mean ± SD ([6]; U-251, 6 μM): 1.52%; Cells in G2/M phase, mean ± SD ([6]; U-251, 6 μM): 90.68%; Cells in S phase, mean ± SD ([6]; U-251, 6 μM): 1.52%"
"COc1ccccc1/C=C/c1nc(OS(=O)(=O)c2cc3c(cc2Br)OCO3)c2ccccc2n1 [BS2, 2-((E)-2-(2-methoxyphenyl)ethenyl)quinazolin-4-yl 6-bromo-1,3-benzodioxole-5-sulfonate]",246 ± 55,63.70,–,1310 ± 290,11.94,2900 ± 622,5.39,15700 ± 1410,–
"COc1ccccc1/C=C/c1nc(OS(=O)(=O)c2ccc(C)cc2)c2ccccc2n1 [BS4, 2-((E)-2-(2-methoxyphenyl)ethenyl)quinazolin-4-yl 4-methylbenzenesulfonate]",173 ± 31,144.51,58.73,3720 ± 487,6.71,235 ± 42,106.38,> 25000,"LC3 transcript levels ([2]; K562, 0.35 µM): decreased; Decrease in the IDH1 mRNA level ([2]; K562, 0.5 µM and 0.35 µM): about a two-fold decrease; GADD45α mRNA expression ([2]; K562, 0.5 μM): almost two-fold decrease; Cells in G0/G1 phase, mean ± SD ([3]; K562, 0.5 μM): 21.80%; Cells in S phase, mean ± SD ([3]; K562, 0.5 μM): 18.32%; Increase in the fraction of cells in the G2/M phase compared to the control ([6]; U-251, 4 µM): ~23.1%; Increase in the fraction of cells in the G2/M phase compared to the control ([6]; U-251, 6 μM): about 40.92%"
